Source: US8975417B2, “Pyrazolopyrrolidine derivatives and their use in the treatment of disease” (Novartis AG, priority 2013, dated 2015)

Tests used:
THP-1 cells = assay: Cell growth inhibition assay (CellTiter-Glo), THP-1; format: cell-based; conditions: Homo sapiens, read-out: THP-1 TGI
In short: (§1)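 CTG luminescence (cellular ATP) after compound treatment; values background- and day 0-corrected, vehicle (0.1% DMSO) = 100%, medium only = −100%. Dose range: 3-fold dilutions from 10 μM. IC50/TGI by 4-parameter fit.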

MV-4-11 cells = assay: Cell growth inhibition assay (CellTiter-Glo), MV-4-11; format: cell-based; conditions: Homo sapiens, MV4-11, read-out: MV-4-11 TGI
In short: as §1

His-Brd2(60-472) = His-Brd2(60-472) (Homo sapiens (Human), UniProt P25440); assay: TR-FRET in-vitro binding assay for BRD2; conditions: biochemical
His-Brd2(60-472), sequence (P25440 60-472): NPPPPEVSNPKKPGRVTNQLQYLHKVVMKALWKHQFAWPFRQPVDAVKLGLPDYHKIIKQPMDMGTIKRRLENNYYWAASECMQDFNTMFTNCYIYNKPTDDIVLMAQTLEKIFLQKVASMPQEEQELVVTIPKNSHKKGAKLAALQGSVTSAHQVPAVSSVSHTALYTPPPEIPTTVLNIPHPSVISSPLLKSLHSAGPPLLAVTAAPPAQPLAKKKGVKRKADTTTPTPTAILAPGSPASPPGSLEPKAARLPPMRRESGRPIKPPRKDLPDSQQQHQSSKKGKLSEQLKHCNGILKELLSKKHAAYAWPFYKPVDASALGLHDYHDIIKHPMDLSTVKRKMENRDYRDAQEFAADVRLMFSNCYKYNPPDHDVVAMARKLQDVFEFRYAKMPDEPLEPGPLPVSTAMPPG
In short: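 His-tagged BRD2(60-472), BRD3(20-477) or BRD4(44-477), 45 nM in dispensing solution, with 60 nM tetra-acetylated histone H4 peptide (AcK5/8/12/16) in dispensing solution; HEPES pH 7.5, 50 mM NaCl, 0.1% BSA, 30 °C, 35 min. Eu-anti-His6 antibody plus streptavidin-APC added for TR-FRET read-out; 8-point compound dilutions.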

K-562 cells = assay: Cell growth inhibition assay (CellTiter-Glo), K-562; format: cell-based, human; conditions: Homo sapiens, K562, read-out: K-562 TGI
In short: as §1

[1] = target: His-CREBBP (1081-1197) bromodomain (Homo sapiens (Human), UniProt Q92793); assay: AlphaScreen in-vitro binding assay for CREBBP; conditions: biochemical
His-CREBBP (1081-1197) bromodomain, sequence (Q92793 1081-1197): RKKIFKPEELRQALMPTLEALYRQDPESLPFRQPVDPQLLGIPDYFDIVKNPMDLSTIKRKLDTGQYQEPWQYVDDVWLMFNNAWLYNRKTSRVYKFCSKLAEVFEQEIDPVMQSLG
In short: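 Ni-chelate acceptor and streptavidin donor beads (45 µg/mL each, in 50 mM HEPES pH 7.5, 150 mM NaCl, 0.02% BSA) were then added for 60 min at room temperature. IC50 came from 8-point non-linear regression.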

In the case of `Cc1cc(N2C(=O)c3nn(C(=O)N(C)C)c(C)c3C2c2ccc(Cl)cc2)cn(C)c1=O` (centres unmarked) [Example 141, 4-(4-chlorophenyl)-5-(1,5-dimethyl-6-oxo-1,6-dihydropyridin-3-yl)-N,N,3-trimethyl-6-oxo-5,6-dihydropyrrolo[3,4-c]pyrazole-2(4H)-carboxamide], the IC (total growth inhibition) (THP-1 cells) is reported as 0.527 µM, the IC (total growth inhibition) (MV-4-11 cells) is reported as 0.222 µM and the IC50 (His-Brd2(60-472)) is reported as 180 nM. For the same compound, the IC (total growth inhibition) (K-562 cells) was > 10 µM and the IC50 [1] was 1500 nM.

`Cc1nn(C(=O)N(C)C)c2c1C(c1ccc(Cl)cc1)N(c1cc(C)c(=O)n(C)c1)C2=O` (centres unmarked) [Example 142, 4-(4-chlorophenyl)-5-(1,5-dimethyl-6-oxo-1,6-dihydropyridin-3-yl)-N,N,3-trimethyl-6-oxo-5,6-dihydropyrrolo[3,4-c]pyrazole-1(4H)-carboxamide] gave an IC (total growth inhibition) (THP-1 cells) of 0.448 µM, an IC (total growth inhibition) (MV-4-11 cells) of 0.121 µM and an IC50 (His-Brd2(60-472)) of 180 nM. For the same compound, the IC (total growth inhibition) (K-562 cells) was > 10 µM and the IC50 [1] was 4600 nM.

In the case of `CNC(=O)n1nc(C)c2c1C(=O)N(c1cc(C)c(=O)n(C)c1)C2c1ccc(Cl)cc1` (centres unmarked) [Example 143, 4-(4-chlorophenyl)-5-(1,5-dimethyl-6-oxo-1,6-dihydropyridin-3-yl)-N,3-dimethyl-6-oxo-5,6-dihydropyrrolo[3,4-c]pyrazole-1(4H)-carboxamide], the IC (total growth inhibition) (THP-1 cells) is reported as 0.621 µM, the IC (total growth inhibition) (MV-4-11 cells) is reported as 0.116 µM and the IC50 (His-Brd2(60-472)) is reported as 330 nM. The IC (total growth inhibition) (K-562 cells) was > 10 µM and the IC50 [1] was > 37000 nM.

Compound `CNC(=O)n1nc(C)c2c1C(=O)N(c1cc(C)c3nnc(C)n3c1)C2c1ccc(Cl)cc1` (centres unmarked) [Example 145, 4-(4-chlorophenyl)-5-(3,8-dimethyl-[1,2,4]triazolo[4,3-a]pyridin-6-yl)-N,3-dimethyl-6-oxo-5,6-dihydropyrrolo[3,4-c]pyrazole-1(4H)-carboxamide] has an IC (total growth inhibition) (THP-1 cells) of 0.335 µM, an IC (total growth inhibition) (MV-4-11 cells) of 0.093 µM and an IC50 (His-Brd2(60-472)) of 180 nM. For the same compound, the IC (total growth inhibition) (K-562 cells) was > 10 µM and the IC50 [1] was > 37000 nM.

Work on `CCc1c2c(nn1C(=O)N(C)C)C(=O)N(c1cc(C)c(=O)n(C)c1)C2c1ccc(Cl)cc1` (centres unmarked) [Example 148, 4-(4-chlorophenyl)-5-(1,5-dimethyl-6-oxo-1,6-dihydropyridin-3-yl)-3-ethyl-N,N-dimethyl-6-oxo-5,6-dihydropyrrolo[3,4-c]pyrazole-2(4H)-carboxamide] yielded an IC (total growth inhibition) (THP-1 cells) of 0.372 µM, an IC (total growth inhibition) (MV-4-11 cells) of 0.114 µM and an IC50 (His-Brd2(60-472)) of 220 nM. For the same compound, the IC (total growth inhibition) (K-562 cells) was > 10 µM and the IC50 [1] was 4100 nM.

Compound `Cc1nn(C(=O)N(C)C)c2c1[C@@H](c1ccc(Cl)cc1)N(c1cc(C)c3nnc(C)n3c1)C2=O` [Example 149, (R)-4-(4-chlorophenyl)-5-(3,8-dimethyl-[1,2,4]triazolo[4,3-a]pyridin-6-yl)-N,N,3-trimethyl-6-oxo-5,6-dihydropyrrolo[3,4-c]pyrazole-1(4H)-carboxamide] has an IC (total growth inhibition) (THP-1 cells) of 0.138 µM, an IC (total growth inhibition) (MV-4-11 cells) of 0.0505 µM and an IC50 (His-Brd2(60-472)) of 36 nM. The IC (total growth inhibition) (K-562 cells) was > 10 µM and the IC50 [1] was 6900 nM.

For `Cc1cc(N2C(=O)c3nn(C(=O)N(C)C)c(C)c3[C@H]2c2ccc(Cl)cc2)cn2c(C)nnc12` [Example 150, (R)-4-(4-chlorophenyl)-5-(3,8-dimethyl-[1,2,4]triazolo[4,3-a]pyridin-6-yl)-N,N,3-trimethyl-6-oxo-5,6-dihydropyrrolo[3,4-c]pyrazole-2(4H)-carboxamide], the IC (total growth inhibition) (THP-1 cells) was 0.211 µM, the IC (total growth inhibition) (MV-4-11 cells) was 0.0863 µM and the IC50 (His-Brd2(60-472)) was 140 nM. The IC (total growth inhibition) (K-562 cells) was > 10 µM and the IC50 [1] was 4600 nM.

`Cc1nn(C2CNC2)c2c1C(c1ccc(Cl)cc1)N(c1cc(C)c3nnc(C)n3c1)C2=O` (centres unmarked) [Example 151, 1-(azetidin-3-yl)-4-(4-chlorophenyl)-5-(3,8-dimethyl-[1,2,4]triazolo[4,3-a]pyridin-6-yl)-3-methyl-4,5-dihydropyrrolo[3,4-c]pyrazol-6(1H)-one] showed an IC (total growth inhibition) (THP-1 cells) of 1.33 µM, an IC (total growth inhibition) (MV-4-11 cells) of 0.368 µM and an IC50 (His-Brd2(60-472)) of 150 nM. The IC (total growth inhibition) (K-562 cells) was > 10 µM and the IC50 [1] was > 37000 nM.

`Cc1cc(N2C(=O)c3nn(C4CNC4)c(C)c3C2c2ccc(Cl)cc2)cn2c(C)nnc12` (centres unmarked) [Example 152, 2-(azetidin-3-yl)-4-(4-chlorophenyl)-5-(3,8-dimethyl-[1,2,4]triazolo[4,3-a]pyridin-6-yl)-3-methyl-4,5-dihydropyrrolo[3,4-c]pyrazol-6(2H)-one] showed an IC (total growth inhibition) (THP-1 cells) of 4 µM, an IC (total growth inhibition) (MV-4-11 cells) of 0.8 µM and an IC50 (His-Brd2(60-472)) of 100 nM. The IC (total growth inhibition) (K-562 cells) was > 10 µM and the IC50 [1] was 3100 nM.

Work on `CC(=O)N1CC(n2nc(C)c3c2C(=O)N(c2cc(C)c(=O)n(C)c2)C3c2ccc(Cl)cc2)C1` (centres unmarked) [Example 153, 1-(1-acetylazetidin-3-yl)-4-(4-chlorophenyl)-5-(1,5-dimethyl-6-oxo-1,6-dihydropyridin-3-yl)-3-methyl-4,5-dihydropyrrolo[3,4-c]pyrazol-6(1H)-one] yielded an IC (total growth inhibition) (THP-1 cells) of 0.515 µM, an IC (total growth inhibition) (MV-4-11 cells) of 0.161 µM and an IC50 (His-Brd2(60-472)) of 160 nM. The IC (total growth inhibition) (K-562 cells) was > 10 µM and the IC50 [1] was 12000 nM.

In the case of `CC(=O)N1CC(n2nc(C)c3c2C(=O)N(c2cc(C)c4nnc(C)n4c2)C3c2ccc(Cl)cc2)C1` (centres unmarked) [Example 154, 1-(1-acetylazetidin-3-yl)-4-(4-chlorophenyl)-5-(3,8-dimethyl-[1,2,4]triazolo[4,3-a]pyridin-6-yl)-3-methyl-4,5-dihydropyrrolo[3,4-c]pyrazol-6(1H)-one], the IC (total growth inhibition) (THP-1 cells) is reported as 0.538 µM, the IC (total growth inhibition) (MV-4-11 cells) is reported as 0.112 µM and the IC50 (His-Brd2(60-472)) is reported as 120 nM. The IC (total growth inhibition) (K-562 cells) was > 10 µM and the IC50 [1] was > 37000 nM.

`CCOC(=O)N1CC(n2nc(C)c3c2C(=O)N(c2cc(C)c(=O)n(C)c2)C3c2ccc(Cl)cc2)C1` (centres unmarked) [Example 155, Ethyl 3-(4-(4-chlorophenyl)-5-(1,5-dimethyl-6-oxo-1,6-dihydropyridin-3-yl)-3-methyl-6-oxo-5,6-dihydropyrrolo[3,4-c]pyrazol-1(4H)-yl)azetidine-1-carboxylate] showed an IC (total growth inhibition) (THP-1 cells) of 0.305 µM, an IC (total growth inhibition) (MV-4-11 cells) of 0.117 µM and an IC50 (His-Brd2(60-472)) of 80 nM. For the same compound, the IC (total growth inhibition) (K-562 cells) was > 10 µM and the IC50 [1] was 11000 nM.

With `CCOC(=O)N1CC(n2nc(C)c3c2C(=O)N(c2cc(C)c4nnc(C)n4c2)C3c2ccc(Cl)cc2)C1` (centres unmarked) [Example 156, Ethyl 3-(4-(4-chlorophenyl)-5-(3,8-dimethyl-[1,2,4]triazolo[4,3-a]pyridin-6-yl)-3-methyl-6-oxo-5,6-dihydropyrrolo[3,4-c]pyrazol-1(4H)-yl)azetidine-1-carboxylate] the IC (total growth inhibition) (THP-1 cells) was 0.143 µM, the IC (total growth inhibition) (MV-4-11 cells) was 0.058 µM and the IC50 (His-Brd2(60-472)) was 59 nM. The IC (total growth inhibition) (K-562 cells) was > 10 µM and the IC50 [1] was > 37000 nM.

Compound `Cc1nn(C2CN(C)C2)c2c1C(c1ccc(Cl)cc1)N(c1cc(C)c3nnc(C)n3c1)C2=O` (centres unmarked) [Example 157, 4-(4-chlorophenyl)-5-(3,8-dimethyl-[1,2,4]triazolo[4,3-a]pyridin-6-yl)-3-methyl-1-(1-methylazetidin-3-yl)-4,5-dihydropyrrolo[3,4-c]pyrazol-6(1H)-one] has an IC (total growth inhibition) (THP-1 cells) of 0.312 µM, an IC (total growth inhibition) (MV-4-11 cells) of 0.0833 µM and an IC50 (His-Brd2(60-472)) of 77 nM. For the same compound, the IC (total growth inhibition) (K-562 cells) was > 10 µM and the IC50 [1] was > 37000 nM.

`Cc1cc(N2C(=O)c3nn(C4CN(C)C4)c(C)c3C2c2ccc(Cl)cc2)cn2c(C)nnc12` (centres unmarked) [Example 158, 4-(4-chlorophenyl)-5-(3,8-dimethyl-[1,2,4]triazolo[4,3-a]pyridin-6-yl)-3-methyl-2-(1-methylazetidin-3-yl)-4,5-dihydropyrrolo[3,4-c]pyrazol-6(2H)-one] gave an IC (total growth inhibition) (THP-1 cells) of 0.298 µM, an IC (total growth inhibition) (MV-4-11 cells) of 0.045 µM and an IC50 (His-Brd2(60-472)) of 98 nM. The IC (total growth inhibition) (K-562 cells) was > 10 µM and the IC50 [1] was 3300 nM.

`Cc1nn(C[C@H](O)C(F)(F)F)c2c1[C@@H](c1ccc(Cl)cc1)N(c1cc(C)c3nnc(C)n3c1)C2=O` [Example 167, (R)-4-(4-chlorophenyl)-5-(3,8-dimethyl-[1,2,4]triazolo[4,3-a]pyridin-6-yl)-3-methyl-1-((S)-3,3,3-trifluoro-2-hydroxypropyl)-4,5-dihydropyrrolo[3,4-c]pyrazol-6(1H)-one] showed an IC (total growth inhibition) (THP-1 cells) of 0.117 µM, an IC (total growth inhibition) (MV-4-11 cells) of 0.0433 µM and an IC50 (His-Brd2(60-472)) of 42 nM. The IC (total growth inhibition) (K-562 cells) was > 10 µM and the IC50 [1] was 12000 nM.
